The source of these data is article PMC12845312, “Hydrazonylthiazole Derivatives as Dual EGFR and ALR2 Inhibitors: Design, Synthesis, and Comprehensive In Vitro and In Silico Evaluation for Potential Anticancer Activity” (Pharmaceuticals, 2025).

Where two headings read alike, the source gives them in different places.

As a reminder, the Ki is the dissociation constant of the complex between target and ligand, obtained from inhibition or displacement. Low readings indicate a stronger hold on the target, high ones a looser hold on the target. For orientation: IC50 means the concentration needed to halve the response being measured. Usually inhibition stands for how much of the control response was suppressed.

Test [1] deals with ALR2 (Homo sapiens, UniProt P15121). The experiment in a line: In vitro ALR2 inhibition assay (NADPH absorbance, DL-glyceraldehyde substrate). The format is biochemical. The conditions noted are these: for Ki: ALR2, DL-glyceraldehyde substrate, mean ±SEM (n = 3). As to the method:
The protocol followed earlier steady-state kinetic studies with minor adjustments. Measurements were performed at 37 °C in 10 mM sodium phosphate buffer (pH 7.4) in 1 mL quartz cuvettes (1 cm path length). Each reaction mixture contained 0.11 mM NADPH and DL-glyceraldehyde at final concentrations between 0.071 and 0.376 mM. Test compounds were introduced from DMSO stock solutions, and the total DMSO content was kept below 1% (v/v).
Prior to substrate addition, the enzyme and inhibitor were combined and left on ice for 1 min to allow initial complex formation. The reaction was initiated by adding DL-glyceraldehyde, and the decrease in absorbance at 340 nm (ε340 = 6.22 mM^−1 cm^−1) was recorded for 180 s using a calibrated UV-Vis instrument. […] All values represent the mean of triplicate determinations, and the entire experiment was repeated on three separate days (n = 3). Reaction rates were calculated from the linear segment of each kinetic trace.
For selected compounds, including compound 5, extended kinetic analyses were conducted by varying both substrate and inhibitor levels. The resulting Lineweaver-Burk plots (1/v vs. 1/[S]) were used to interpret the inhibition pattern (Figure 18). Secondary replots were used to extract KI values by linear regression. Data processing and curve fitting were performed in GraphPad Prism (v10.0), and kinetic parameters are expressed as mean ± SEM.

Test [2] concerns peripheral blood mononuclear cells (PBMCs). The experiment in a line: MTT cytotoxicity assay in PBMCs (selectivity). The format is cell-based. The following applies: for SI (Selectivity Index): IC50 for PBMC/IC50 for Jurkat cell line; for IC50: PBMC, MTT assay. On the procedure:
(§1) A549 (ATCC, Manassas, VA, USA) and MCF-7 (ATCC, VA, USA) cells were grown in Dulbecco’s Modified Eagle Medium (DMEM; Wako, Osaka, Japan) containing 10% fetal bovine serum (FBS; Equitech-Bio, Kerrville, TX, USA). Jurkat T-cells (ATCC, VA, USA) were maintained in RPMI-1640 medium (Wako Pure Chemical Industries, Osaka, Japan) supplemented with 10% FBS, while PBMCs (Precision Bioservices, Frederick, MD, USA) were expanded in the same medium supplemented with 10% human AB serum (Gemini, Woodland, CA, USA). Streptomycin was added to all culture media at a final concentration of 89 µg/mL (Meiji Seika Pharma, Tokyo, Japan). All cells were kept at 37 °C under humidified conditions with 5% CO2. For viability measurements, A549 and MCF-7 cells were seeded into 24-well plates, whereas PBMCs were dispensed into 96-well plates (Iwaki, Asahi Glass, Chiba, Japan) at initial densities of 4 × 10^4 cells/mL and 5 × 10^5 cells/mL, respectively. […] Concentrated stock solutions were prepared in dimethyl sulfoxide (DMSO; Wako Pure Chemical Industries) and diluted with culture medium to final assay concentrations ranging from […]. The DMSO content was kept constant at 1% in all wells. Cell viability was assessed using the MTT colorimetric assay (Dojindo, Kumamoto, Japan), following established procedures with minor protocol refinements previously reported in the literature.

The subject of test [3] is A549 (NSCLC) cells. In words: MTT cytotoxicity assay in A549 cells. The conditions noted are these: for reduction in A549 viability: 10 µM; for IC50: Homo sapiens, A549. The format is cell-based. On the procedure:
(§2) A549 (ATCC, Manassas, VA, USA) and MCF-7 (ATCC, VA, USA) cells were grown in Dulbecco’s Modified Eagle Medium (DMEM; Wako, Osaka, Japan) containing 10% fetal bovine serum (FBS; Equitech-Bio, Kerrville, TX, USA). Jurkat T-cells (ATCC, VA, USA) were maintained in RPMI-1640 medium (Wako Pure Chemical Industries, Osaka, Japan) supplemented with 10% FBS, while PBMCs (Precision Bioservices, Frederick, MD, USA) were expanded in the same medium supplemented with 10% human AB serum (Gemini, Woodland, CA, USA). Streptomycin was added to all culture media at a final concentration of 89 µg/mL (Meiji Seika Pharma, Tokyo, Japan). All cells were kept at 37 °C under humidified conditions with 5% CO2. For viability measurements, A549 and MCF-7 cells were seeded into 24-well plates, whereas PBMCs were dispensed into 96-well plates (Iwaki, Asahi Glass, Chiba, Japan) at initial densities of 4 × 10^4 cells/mL and 5 × 10^5 cells/mL, respectively. […] The DMSO content was kept constant at 1% in all wells. Cell viability was assessed using the MTT colorimetric assay (Dojindo, Kumamoto, Japan), following established procedures with minor protocol refinements previously reported in the literature.

Test [4] concerns the target T1, HER-2 (Homo sapiens, UniProt P04626).
T1 construct: purchased Promega V9381
In words: HER-2 kinase inhibition (Promega HER-2 TK kit, ADP-Glo). It is filed as biochemical. As to the method: (§3) EGFR kinase activity was monitored using the Promega EGFR TK kit (Cat. No. V3831) at final test concentrations of 1 µM and 10 µM. HER-2 activity was assessed under analogous conditions using the Promega HER-2 TK kit (Cat. No. V9381) at 10 µM, in accordance with earlier studies. For each assay, the enzyme and its substrate were diluted in a mixture containing 95 µL of 2.5× kinase buffer and 15 µL of 100 µM ATP. Reactions were assembled in 384-well plates by dispensing 4 µL of each compound solution (0.1–100 µM) into wells containing 8 µL of the enzyme/ATP/substrate preparation. Plates were incubated for 1.5 h at room temperature, after which ADP formation, reflecting kinase turnover, was quantified using the ADP-Glo™ detection system (Promega, Madison, WI, USA). Luminescence was measured with an Infinite M1000 reader (Tecan, Grödig, Austria).
A general note: ADP-Glo turns the ADP formed in a reaction into a luminescent signal.

Test [5] deals with A549 cells. In words: Apoptosis, Annexin V/ethidium homodimer staining. The conditions noted are these: IC50 concentration, 24 h. It is filed as cell-based. On the procedure:
After exposure, cells were detached using 0.05% trypsin, rinsed twice with 1× binding buffer, and prepared for fluorescence-based apoptotic assessment. The resulting pellet was suspended in a staining mixture consisting of 50 µL of 1× binding buffer, along with 4 µL each of FITC-Annexin V, ethidium homodimer III, and Hoechst 33342. The suspension was incubated for 20 min at room temperature in the dark to ensure proper labeling. Following staining, cells were washed again with binding buffer, fixed in 2% paraformaldehyde, and briefly rinsed with phosphate-buffered saline (PBS). Apoptotic and necrotic populations were visualized and recorded using a Biorevo BZ-9000 fluorescence microscope (Keyence, Osaka, Japan), following procedures adapted from previously reported workflows.

For test [6], the system named is MCF-7 (breast cancer) cells. The experiment in a line: MTT cytotoxicity assay in MCF-7 cells. It is filed as cell-based. The conditions noted are these: for reduced viability in MCF-7 cells: 10 µM; for IC50: Homo sapiens, MCF7. On the procedure:
as §2

For test [7], the target named is T2, EGFR (Homo sapiens, UniProt P00533).
T2 construct: purchased Promega V3831
In words: EGFR kinase inhibition (Promega EGFR TK kit, ADP-Glo). The format is biochemical. As to the method: as §3

In test [8] the test system is Jurkat leukemia cells. The experiment in a line: MTT cytotoxicity assay in Jurkat cells. The format is cell-based. The conditions noted are these: Homo sapiens. As to the method: as §1
Test [9] relates to MCF-7 cells. The conditions noted are these: cited from earlier work.
Test [10] addresses T2, EGFR. The conditions noted are these: read-out: EGFR inhibition IC50 (converted); cited from earlier work.

T2 sequence (P00533 25-1210): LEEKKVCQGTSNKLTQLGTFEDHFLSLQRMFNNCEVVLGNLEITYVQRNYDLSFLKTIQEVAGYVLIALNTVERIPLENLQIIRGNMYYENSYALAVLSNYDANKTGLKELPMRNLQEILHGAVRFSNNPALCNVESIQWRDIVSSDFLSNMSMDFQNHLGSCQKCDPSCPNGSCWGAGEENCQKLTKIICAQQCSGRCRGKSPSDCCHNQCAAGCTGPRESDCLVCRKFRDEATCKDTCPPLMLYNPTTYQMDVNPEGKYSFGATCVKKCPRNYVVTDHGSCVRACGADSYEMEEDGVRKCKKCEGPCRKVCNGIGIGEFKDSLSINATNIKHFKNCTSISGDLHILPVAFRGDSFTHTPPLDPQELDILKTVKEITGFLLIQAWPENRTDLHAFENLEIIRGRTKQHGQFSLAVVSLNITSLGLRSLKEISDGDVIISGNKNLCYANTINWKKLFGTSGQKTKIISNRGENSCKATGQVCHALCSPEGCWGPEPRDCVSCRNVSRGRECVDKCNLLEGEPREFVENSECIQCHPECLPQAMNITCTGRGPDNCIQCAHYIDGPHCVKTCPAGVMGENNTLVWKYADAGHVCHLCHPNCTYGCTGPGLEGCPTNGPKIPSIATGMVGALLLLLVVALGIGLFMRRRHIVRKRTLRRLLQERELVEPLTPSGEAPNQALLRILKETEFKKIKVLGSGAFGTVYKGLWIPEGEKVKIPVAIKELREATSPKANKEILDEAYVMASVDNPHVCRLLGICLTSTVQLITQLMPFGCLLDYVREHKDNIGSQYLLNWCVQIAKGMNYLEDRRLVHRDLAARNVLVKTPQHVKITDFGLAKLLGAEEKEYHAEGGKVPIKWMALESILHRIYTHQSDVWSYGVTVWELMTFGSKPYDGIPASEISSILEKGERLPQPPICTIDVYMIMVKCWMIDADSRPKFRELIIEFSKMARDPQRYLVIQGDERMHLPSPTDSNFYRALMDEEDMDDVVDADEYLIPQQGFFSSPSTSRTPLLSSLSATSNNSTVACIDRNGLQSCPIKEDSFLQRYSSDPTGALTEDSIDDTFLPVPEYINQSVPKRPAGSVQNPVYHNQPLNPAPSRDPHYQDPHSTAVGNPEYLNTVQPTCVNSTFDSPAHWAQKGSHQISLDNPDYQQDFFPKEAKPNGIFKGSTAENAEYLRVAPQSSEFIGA
T1 sequence (P04626 23-1255): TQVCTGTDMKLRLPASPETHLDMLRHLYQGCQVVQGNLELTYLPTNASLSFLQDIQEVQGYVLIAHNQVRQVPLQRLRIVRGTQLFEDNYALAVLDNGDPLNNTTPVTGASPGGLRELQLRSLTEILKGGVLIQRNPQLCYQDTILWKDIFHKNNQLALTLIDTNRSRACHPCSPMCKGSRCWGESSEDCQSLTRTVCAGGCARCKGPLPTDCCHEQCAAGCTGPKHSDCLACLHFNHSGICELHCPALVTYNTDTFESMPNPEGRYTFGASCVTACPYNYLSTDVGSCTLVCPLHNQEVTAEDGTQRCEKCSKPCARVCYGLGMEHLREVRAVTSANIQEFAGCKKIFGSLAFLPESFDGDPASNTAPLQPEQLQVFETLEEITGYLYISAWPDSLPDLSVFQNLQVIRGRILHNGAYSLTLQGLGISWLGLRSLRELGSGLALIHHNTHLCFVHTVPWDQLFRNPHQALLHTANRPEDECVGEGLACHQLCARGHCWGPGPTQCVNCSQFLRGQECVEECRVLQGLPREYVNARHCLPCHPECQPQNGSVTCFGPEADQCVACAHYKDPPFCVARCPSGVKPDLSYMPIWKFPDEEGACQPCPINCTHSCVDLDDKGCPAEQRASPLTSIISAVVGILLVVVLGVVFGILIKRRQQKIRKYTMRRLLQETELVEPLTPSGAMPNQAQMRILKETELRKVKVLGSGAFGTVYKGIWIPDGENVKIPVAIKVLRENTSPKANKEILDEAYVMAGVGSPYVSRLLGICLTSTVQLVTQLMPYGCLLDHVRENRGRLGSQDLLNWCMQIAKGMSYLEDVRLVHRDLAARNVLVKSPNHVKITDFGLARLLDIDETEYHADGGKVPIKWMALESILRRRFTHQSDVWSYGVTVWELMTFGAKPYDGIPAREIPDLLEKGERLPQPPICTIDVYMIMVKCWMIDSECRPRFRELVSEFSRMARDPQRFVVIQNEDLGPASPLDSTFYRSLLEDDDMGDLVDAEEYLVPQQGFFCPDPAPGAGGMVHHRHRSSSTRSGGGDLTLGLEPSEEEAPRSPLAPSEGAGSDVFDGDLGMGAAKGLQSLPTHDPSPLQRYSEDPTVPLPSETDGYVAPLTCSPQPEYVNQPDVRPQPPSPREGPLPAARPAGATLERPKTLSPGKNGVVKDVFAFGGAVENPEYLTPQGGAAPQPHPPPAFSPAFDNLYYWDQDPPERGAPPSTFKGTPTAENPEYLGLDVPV

In turn, `Cn1ccnc1/C=N/Nc1nc(-c2ccccc2)cs1` [Compound 1, 1-[(4-Phenyl-1,3-thiazol-2-yl)amino]-2-[(1-methyl-1H-imidazol-2-yl)methylidene]hydrazine] displayed a Ki in test [1] of 2.64 ± 0.16 µM.
The same measure, in the same setting: the value for `COc1ccc(-c2csc(N/N=C/c3nccn3C)n2)cc1` [Compound 8, 1-[(4-(4-Methoxyphenyl)-1,3-thiazol-2-yl)amino]-2-[(1-methyl-1H-imidazol-2-yl)methylidene]hydrazine] was 0.21 ± 0.02 µM; that for `Cn1ccnc1/C=N/Nc1nc(-c2ccc3ccccc3c2)cs1` [Compound 11, 1-[(4-(Naphthalen-2-yl)-1,3-thiazol-2-yl)amino]-2-[(1-methyl-1H-imidazol-2-yl)methylidene]hydrazine] was 1.91 ± 0.1 µM; that for `Cn1ccnc1/C=N/Nc1nc(-c2ccc(C(F)(F)F)cc2)cs1` [Compound 9, 1-[(4-(4-Trifluoromethylphenyl)-1,3-thiazol-2-yl)amino]-2-[(1-methyl-1H-imidazol-2-yl)methylidene]hydrazine] was 0.91 ± 0.05 µM.
Regarding `Cn1ccnc1/C=N/Nc1nc(-c2ccc(-c3cccs3)cc2)cs1` [Compound 13, 1-[(4-(4-(Thiophen-2-yl)phenyl)-1,3-thiazol-2-yl)amino]-2-[(1-methyl-1H-imidazol-2-yl)methylidene]hydrazine], in test [2], the “SI (Selectivity Index)” value is 138.90 and 229 ± 26.2 µM corresponded to half-maximal inhibition (IC50). In test [3], the “reduction in A549 viability” value is given as ~ 67% and the IC50 was found to be 1.33 ± 0.41 µM. Moreover, in test [4], testing at 10 µM gave an inhibition of 1.89%. For the same compound, the apoptosis induction result in test [5] is recorded as “triggered apoptosis in A549 cells significantly compared with lapatinib”. The affinity in [1], expressed as Ki, was 2.48 ± 0.14 µM. Moreover, in [6], the “reduced viability in MCF-7 cells” value is given as 69% and half-maximal inhibition (IC50) required 1.74 ± 0.38 µM. Moreover, in [7], the inhibition at 1 µM was 45% and the inhibition at 10 µM is 74%. The compound further registered a half-inhibitory concentration (IC50) in test [8] of 1.65 ± 0.4 µM.
In the case of `Cc1ccc(-c2csc(N/N=C/c3nccn3C)n2)cc1` [Compound 7, 1-[(4-(4-Methylphenyl)-1,3-thiazol-2-yl)amino]-2-[(1-methyl-1H-imidazol-2-yl)methylidene]hydrazine], in test [1], the Ki came out at 0.28 ± 0.03 µM.
On the same count and under the same terms, the value for `Cn1ccnc1/C=N/Nc1nc(-c2ccc(S(C)(=O)=O)cc2)cs1` [Compound 10, 1-[(4-(4-Methylsulfonylphenyl)-1,3-thiazol-2-yl)amino]-2-[(1-methyl-1H-imidazol-2-yl)methylidene]hydrazine] was 0.24 ± 0.02 µM.
As to `CS(=O)(=O)CCNCc1ccc(-c2ccc3ncnc(Nc4ccc(OCc5cccc(F)c5)c(Cl)c4)c3c2)o1` [Lapatinib, lapatinib, reference compound], the IC50 in [2] was 9.79 ± 2.69 µM; in [3], 17.9 ± 5.12 µM; in [6], 8.43 ± 2.85 µM; in [8], 1.35 ± 0.41 µM. Moreover, the inhibition at 10 µM in [4] turned out to be 93%. Further, in test [5], the apoptosis induction result is given as “highly significant increases vs. untreated control”.
Take `Cn1ccnc1/C=N/Nc1nc(-c2ccc(F)cc2)cs1` [Compound 3, 1-[(4-(4-Fluorophenyl)-1,3-thiazol-2-yl)amino]-2-[(1-methyl-1H-imidazol-2-yl)methylidene]hydrazine]: in test [1], the Ki turned out to be 0.44 ± 0.09 µM.
Same read-out and setting: the value for `Cn1ccnc1/C=N/Nc1nc(-c2ccc(C#N)cc2)cs1` [Compound 6, 1-[(4-(4-Cyanophenyl)-1,3-thiazol-2-yl)amino]-2-[(1-methyl-1H-imidazol-2-yl)methylidene]hydrazine] was 0.21 ± 0.02 µM.
Still for that read-out and setting: in the case of `Cn1ccnc1/C=N/Nc1nc(-c2ccc(Cl)cc2)cs1` [Compound 4, 1-[(4-(4-Chlorophenyl)-1,3-thiazol-2-yl)amino]-2-[(1-methyl-1H-imidazol-2-yl)methylidene]hydrazine] it was 0.28 ± 0.03 µM.
Take `CCOC(=O)c1s/c(=N/N=C(\C)c2ccc(Nc3ccnc4cc(Cl)ccc34)cc2)n(C)c1C` [Compound 6b]: the IC50 in test [9] (read-out: IC50 against MCF-7 cell line) is 5.35 µM; in [10] it was 0.0189 µM.
Regarding `Cn1c(-c2csc(NN=C3CCCC3)n2)nc2ccccc21` [Compound 4a], in test [9] (read-out: IC50 against MCF-7 cells), the IC50 is 6.3 µM.
For the compound `Cn1ccnc1/C=N/Nc1nc(-c2ccc(Br)cc2)cs1` [Compound 5], in test [2], the “SI (Selectivity Index)” value turned out to be 37.39 and half-maximal inhibition (IC50) required 72.5 ± 14 µM. Besides, in [3], the “reduction in A549 viability” value is given as ~ 59% and the IC50 is 6.87 ± 2.1 µM. Moreover, the Ki in test [1] was 0.08 ± 0.01 µM. Moreover, the “inhibition profile (Lineweaver–Burk)” value in test [1] (toward DL-glyceraldehyde) was “competitive inhibition profile”. In test [6], the “reduced viability in MCF-7 cells” value is 67% and 2.78 ± 2.85 µM corresponded to half-maximal inhibition (IC50). In [7], this compound came in with an inhibition at 1 µM of 23% and an inhibition at 10 µM of 51%. The IC50 in [8] is 1.94 ± 0.65 µM.
Consider `Cn1ccnc1/C=N/Nc1nc(-c2ccc3c(c2)OCO3)cs1` [Compound 12, 1-[(4-(Benzo[d][1,3]dioxol-5-yl)-1,3-thiazol-2-yl)amino]-2-[(1-methyl-1H-imidazol-2-yl)methylidene]hydrazine], for which the affinity in test [1] corresponds to a Ki of 2.01 ± 0.1 µM.
Still for that read-out and setting: in the case of `Cn1ccnc1/C=N/Nc1nc(-c2ccc([N+](=O)[O-])cc2)cs1` [Compound 2, 1-[(4-(4-Nitrophenyl)-1,3-thiazol-2-yl)amino]-2-[(1-methyl-1H-imidazol-2-yl)methylidene]hydrazine] it was 1.83 ± 0.11 µM.
With `C/C(=N\Nc1nc(C)c(/N=N/c2ccc(Cl)cc2)s1)c1cccs1` [Compound 5j], the results for the IC50 in [9] (read-out: IC50 toward MCF-7 cells) and in test [10] were 10.9 µM and 0.0828 µM, respectively.
